One assay has as its target T1, SpsB (Staphylococcus aureus, UniProt P0A070).
T1 construct: using a bacterial membrane fraction as a source of SpsB; from tissue
T1 sequence (P0A070 1-191): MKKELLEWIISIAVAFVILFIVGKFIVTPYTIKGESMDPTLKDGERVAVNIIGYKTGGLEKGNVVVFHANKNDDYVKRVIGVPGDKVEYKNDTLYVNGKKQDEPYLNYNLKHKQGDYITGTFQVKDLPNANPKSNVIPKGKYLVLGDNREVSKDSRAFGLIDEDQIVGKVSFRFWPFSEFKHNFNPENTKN
The experiment in a line: Inhibition of SpsB enzyme activity (fluorescence-based assay, bacterial membrane fraction). In kind it is biochemical. The protocol:
Signal peptidase enzyme activity was measured in a fluorescence-based assay using a bacterial membrane fraction as a source of SpsB (See Bruton et al., 2003, Eur J Med Chem 38:351-356). The SpsB substrate is a synthetic lipopeptide, decanoyl-K(DABCYL)-TPTAKA↓ASKKD-D(EDANS)—NH2 (prepared by JPT Peptide Technologies, Berlin, Germany). Assays were performed with 20 μM peptide substrate (Km≈5 μM) and reactions were initiated with enzyme addition (final protein concentration of 0.6 mg/mL). SpsB mediated cleavage of the peptide substrate was detected as an increase in fluorescence (excitation 340 nm/emission 460 nm).

For assay [1], the system named is MB 5393 (COL), a methicillin-resistant S. aureus strain. The assay is described as follows: Determination of minimum and synergistic inhibitory concentration. The format is cell-based. The note with it: for SIC: presence of imipenem (4 μg/mL); for MIC: Staphylococcus aureus. The protocol: MB 5393 (COL), a methicillin-resistant S. aureus strain, was inoculated into Trypticase Soy Broth (TSB, BBL) and grown in a humidified incubator for 18 hours with rotary shaking at 220 rpm and kept on ice until used.
A quantity of imipenem (Merck Chemical Collection) was weighed out and dissolved into sterile 10 mM MOPS buffer at pH 7. This solution was diluted to 1600 μg/mL, 200 μg/mL, and 25 μg/mL and filter-sterilized through a 0.45 μm filter. From these solutions, seven 1:2 serial dilutions were prepared using sterile 10 mM MOPS buffer at pH 7. The final concentration ranges tested were 128 to 2 μg/mL, 16 to […], and 2 to 0.03 μg/mL. The solutions were kept refrigerated until used.
Test compounds (EXAMPLES 1-67) were prepared in sterile water or DMSO at a concentration of 3.2 mg/mL. From this solution, 11 serial 1:2 dilutions were prepared using sterile water. The final concentration range tested was 64 to 0.0313 μg/mL. The solutions were kept refrigerated until used.
Two-fold serial dilutions of test compounds were tested in the presence and absence of subinhibitory concentrations of imipenem (4 μg/mL) in 96-well U bottom microliter dishes in microbiological growth media. The plates were inoculated with bacterial cells to a final concentration of ˜5×10^5 CFU/mL. Test plates were incubated stationery at 37° C. for 22-24 hours.
After 22 hours of incubation, the Minimum inhibitory concentrations (MICs) were determined, defined as the lowest concentration of antibiotic that prevented all visible growth in the absence of imipenem. Synergistic inhibitory concentrations (SICs) were determined, defined as the lowest concentration of antibiotic that prevented all visible growth in the presence of imipenen.

Where [2] appears, read: 20 μM peptide substrate, read-out: SpsB IC50.
[3] abbreviates: MRSA COL, absence of imipenem, 22 hours, read-out: MIC.

Each structure is given as a SMILES string. Where a name gives a salt, the structure may show the parent alone. Read-outs that look alike come from different tables or passages of the source.

What is called IC50 is the point on the concentration scale where inhibition reaches its midpoint. One may read the MIC as the lowest concentration that inhibits growth of the organism. Take `CCCc1ccc(-c2ccc(C(=O)NCCC(=O)N[C@H](CCCCN)C(=O)N(C)[C@@H]3C(=O)N[C@@H](C)C(=O)N[C@H](CO)Cc4ccc(O)c(c4)-c4cc3ccc4O)cc2)cc1.O=C(O)C(F)(F)F` (mixture of isomers) [EXAMPLE 5, (5R,S)-6-[[(7S,10S,13S)-3,18-dihydroxy-13-(hydroxymethyl)-10-methyl-8,11-dioxo-9,12-diazatricyclo[13.3.1.1^2,6]icosa-1(19),2(20),3,5,15,17-hexaen-7-yl](methyl)amino]-6-oxo-5-[(3-{[(4′-propylbiphenyl-4-yl)carbonyl]amino}propanoyl)amino]hexan-1-aminium trifluoroacetate]: the IC50 at SpsB (setting [2]) is < 10 nM. For the same compound, the SIC result in assay [1] (MRSA COL, 22 hours) is recorded as “H (H: SIC 0.062-1)”. Moreover, the MIC in assay [1] (setting [3]) is < 1 µg/mL.

Regarding `CCCCCCCCCCc1ccc2cc(C(=O)NCCC(=O)N3CCCC3C(=O)N(C)[C@@H]3C(=O)N[C@@H](C)C(=O)N[C@H](C(=O)O)Cc4ccc(O)c(c4)-c4cc3ccc4O)ccc2c1` (stereo in doubt) [EXAMPLE 14, (8S,11S,14S)-3,18-dihydroxy-11-methyl-14-(methyl{[(2R)-1-{3-[(6-decyl-2-naphthoyl)amino]propanoyl}pyrrolidin-2-yl]carbonyl}amino)-10,13-dioxo-9,12-diazatricyclo[13.3.1.1^2,6]icosa-1(19),2(20),3,5,15,17-hexaene-8-carboxylic acid], at SpsB, the IC50 is < 10 nM. The SIC entry in assay [1] (MRSA COL, 22 hours) is recorded as “G (G: SIC <0.0625)”. Further, in assay [1] (setting [3]), the MIC was < 1 µg/mL.

As for `CCCc1ccc(-c2ccc(C(=O)NCCC(=O)NC(CCCCN)C(=O)N(C)[C@@H]3C(=O)N[C@@H](C)C(=O)N[C@H](C(=O)O)Cc4ccc(OC)c(c4)-c4cc3ccc4OC)cc2)cc1.O=C(O)C(F)(F)F` (stereo partly drawn) [EXAMPLE 1, 6-[[(7S,10S,13S)-13-carboxy-3,18-dimethoxy-10-methyl-8,11-dioxo-9,12-diazatricyclo[13.3.1.1^2,6]icosa-1(19),2(20),3,5,15,17-hexaen-7-yl](methyl)amino]-6-oxo-5-[(3-{[(4′-propylbiphenyl-4-yl)carbonyl]amino}propanoyl)amino]hexan-1-aminium trifluoroacetate], the IC50 at SpsB was in the range of 10 to 50 nM. Further, the SIC entry in assay [1] (MRSA COL, 22 hours) is “H (H: SIC 0.062-1)”. Also, the MIC in assay [1] (setting [3]) was 1 to 8 µg/mL.

On SpsB, `CCCc1ccc(-c2ccc(C(=O)NCCC(=O)NC(CCCCN)C(=O)N(C)[C@@H]3C(=O)N[C@@H](C)C(=O)N[C@H](C(=O)O)Cc4ccc(O)c(c4)-c4cc3ccc4O)cc2)cc1.O=C(O)C(F)(F)F` (stereo partly drawn) [EXAMPLE 2, 5-(R,S)-6-[[(7S,10S,3S)-13-carboxy-3,18-dihydroxy-10-methyl-8,11-dioxo-9,12-diazatricyclo[13.3.1.1^2,6]icosa-1(19),2(20),3,5,15,17-hexaen-7-yl](methyl)amino]-6-oxo-5-[(3-{[(4′-propylbiphenyl-4-yl)carbonyl]amino}propanoyl)amino]hexan-1-aminium trifluoroacetate] registered a half-maximal inhibitory concentration (IC50) of 10 to 50 nM. For the same compound, the SIC result in assay [1] (MRSA COL, 22 hours) is on record as “H (H: SIC 0.062-1)”. In addition, the MIC in assay [1] (setting [3]) is 1 to 8 µg/mL.

Turning to `CCCc1ccc(-c2ccc(C(=O)NCCC(=O)N[C@H](CCCCN)C(=O)N(C)[C@@H]3C(=O)N[C@@H](C)C(=O)N[C@H](C(=O)O)Cc4ccc(O)c(c4)-c4cc3ccc4O)cc2)cc1.O=C(O)C(F)(F)F` [EXAMPLE 4, (5R)-6-[[(7S,10S,13S)-13-carboxy-3,18-dihydroxy-10-methyl-8,11-dioxo-9,12-diazatricyclo[13.3.1.1^2,6]icosa-1(19),2(20),3,5,15,17-hexaen-7-yl](methyl)amino]-6-oxo-5-[(3-{[(4′-propylbipherryl-4-yl)carbonyl]amino}propanoyl)amino]hexan-1-aminium trifluoroacetate], the IC50 at SpsB was > 50 nM. In addition, the SIC entry in assay [1] (MRSA COL, 22 hours) is “I (I: SIC >1)”. Besides, the MIC in assay [1] (setting [3]) is > 8 µg/mL.

`CCCc1ccc(-c2ccc(C(=O)NCCC(=O)NC(CCCCN)C(=O)N(C)[C@@H]3C(=O)N[C@@H](C)C(=O)N[C@H](C(N)=O)Cc4ccc(O)c(c4)-c4cc3ccc4O)cc2)cc1.O=C(O)C(F)(F)F` (stereo partly drawn) [EXAMPLE 6, trifluoroacetate] registered an IC50 against SpsB of 10 to 50 nM.

With `CCCc1ccc(-c2ccc(C(=O)NCCC(=O)NC(CCCCN)C(=O)N(C)[C@@H]3C(=O)N[C@@H](C)C(=O)N[C@H](C(N)=O)Cc4ccc(O)c(c4)-c4cc3ccc4O)cc2)cc1.O=C(O)C(F)(F)F` (stereo partly drawn) [EXAMPLE 6], the SIC entry in assay [1] (MRSA COL, 22 hours) is “H (H: SIC 0.062-1)”. The MIC in assay [1] (MRSA, 22 h) was < 1 µg/mL.

`C[C@@H]1NC(=O)[C@@H](N(C)C(=O)C(CCCCN)NC(=O)CCNC(=O)c2ccc(-c3ccc(-c4ccccc4)cc3)cc2)c2ccc(O)c(c2)-c2cc(ccc2O)C[C@@H](C(=O)O)NC1=O.O=C(O)C(F)(F)F` (stereo partly drawn) [EXAMPLE 7, 6-[[(7S,10S,13S)-13-carboxy-3,18-dihydroxy-10-methyl-8,11-dioxo-9,12-diazatricyclo[13.3.1.1^2,6]icosa-1(19),2(20),3,5,15,17-hexaen-7-yl](methyl)amino]-6-oxo-5-({3-[(1,1′:4′,1″-terphenyl-4-ylcarbonyl)amino]propanoyl}amino)hexan-1-aminium trifluoroacetate] came in with an IC50 against SpsB of 10 to 50 nM. Further, the SIC entry in assay [1] (MRSA COL, 22 hours) is given as “H (H: SIC 0.062-1)”. Further, the MIC in assay [1] (setting [3]) was < 1 µg/mL.

On to `CCCc1ccc(-c2ccc(C(=O)NCCC(=O)N[C@@H](CCCNC(=N)N)C(=O)N(C)[C@@H]3C(=O)N[C@@H](C)C(=O)N[C@H](C(=O)O)Cc4ccc(O)c(c4)-c4cc3ccc4O)cc2)cc1.O=C(O)C(F)(F)F` [EXAMPLE 8, ({(4S)-5-[[(7S,10S,13S)-13-carboxy-3,18-dihydroxy-10-methyl-8,11-dioxo-9,12-diazatricyclo[13.3.1.1^2,6]icosa-1(19),2(20),3,5,15,17-hexaen-7-yl](methyl)amino]-5-oxo-4-[(3-{[(4′-propylbiphenyl-4-yl)carbonyl]amino}propanoyl)amino]pentyl}amino)(imino)methanaminium trifluoroacetate], for which, at SpsB, the IC50 is 10 to 50 nM. In addition, the SIC entry in assay [1] (MRSA COL, 22 hours) is “H (H: SIC 0.062-1)”. Moreover, in assay [1] (setting [3]), the MIC is 1 to 8 µg/mL.

Turning to `CCCc1ccc(-c2ccc(C(=O)NCCC(=O)NC(CCCCN)C(=O)N(C)[C@@H]3C(=O)N[C@@H](C)C(=O)N[C@H](C(=O)O)Cc4cccc(c4)-c4cccc3c4)cc2)cc1.O=C(O)C(F)(F)F` (stereo partly drawn) [EXAMPLE 9, 6-[[(7S,10S,13S)-13-carboxy-10-methyl-8,11-dioxo-9,12-diazatricyclo[13.3.1.1^2,6]icosa-1(19),2(20),3,5,15,17-hexaen-7-yl](methyl)amino]-6-oxo-5-[(3-{[(4′-propylbiphenyl-4-yl)carbonyl]amino}propanoyl)amino]hexan-1-aminium trifluoroacetate], the IC50 against SpsB was in the range of 10 to 50 nM. Also, in assay [1] (MRSA COL, 22 hours), the SIC entry was “H (H: SIC 0.062-1)”. Also, the MIC in assay [1] (setting [3]) was > 8 µg/mL.

With `CCCCc1ccc(C#Cc2ccc(C(=O)NCCC(=O)NC(CCCCN)C(=O)N(C)[C@@H]3C(=O)N[C@@H](C)C(=O)N[C@H](C(=O)O)Cc4ccc(OC)c(c4)-c4cc3ccc4OC)cc2)cc1` (stereo partly drawn) [EXAMPLE 10, 5-{[3-({4-[(4-butylphenyl)ethynyl]benzoyl}amino)propanoyl]amino}-6-[[(7S,10S,13S)-13-carboxy-3,18-dimethoxy-10-methyl-8,11-dioxo-9,12-diazatricyclo[13.3.1.1^2,6]icosa-1(19),2(20),3,5,15,17-hexaen-7-yl](methyl)amino]-6-oxohexart-1-aminium trifluoroacetate], the IC50 on SpsB is < 10 nM. In addition, in assay [1] (MRSA COL, 22 hours), the SIC result is on record as “H (H: SIC 0.062-1)”. In addition, the MIC in assay [1] (setting [3]) fell in the range of 1 to 8 µg/mL.

For the compound `CCCc1ccc(-c2ccc(C(=O)NCCC(=O)N(CCCCN)CC(=O)N(C)[C@@H]3C(=O)N[C@@H](C)C(=O)N[C@H](C(=O)O)Cc4ccc(OC)c(c4)-c4cc3ccc4OC)cc2)cc1.O=C(O)C(F)(F)F` [EXAMPLE 11, 4-[{2-[[(7S,10S,13S)-13-carboxy-3,18-dimethoxy-10-methyl-8,11-dioxo-9,12-diazatricyclo[13.3.1.1^2,6]icosa-1(19),2(20),3,5,15,17-hexaen-7-yl](methyl)amino]-2-oxoethyl}(3-{[(4′-propylbiphenyl-4-yl)carbonyl]amino}propanoyl)amino]butan-1-aminium trifluoroacetate], the 50% inhibitory concentration (IC50) at SpsB (setting [2]) fell in the range of 10 to 50 nM. Besides, in assay [1] (MRSA COL, 22 hours), the SIC entry is listed as “H (H: SIC 0.062-1)”. For the same compound, the MIC in assay [1] (setting [3]) is > 8 µg/mL.
